Source: patent US20190105409A9, “IMAGING AGENTS WITH IMPROVED PHARMACOKINETIC PROFILES” (GE HEALTHCARE AS, priority 2004, published 2019)

Experiment: Biodistribution of radiolabelled compounds in a Lewis Lung mouse Carcinoma model
Type: in vivo
Conditions: for % ID/g kidney / % ID/g liver: tail vein injection of radiolabelled compound, excretion profile monitored at 5, 30, 60 and 120 minutes (time point not given)
Description: Biodistribution studies were carried out in a Lewis Lung mouse Carcinoma model as described in Bae et al, Drugs Exp Clin Res, 2003; 29 (1): 15-23. Following tail vein injection of the compounds, e the excretion profile was monitored at 5, 30, 60 and 120 minutes.

SMILES | % ID/g kidney | % ID/g liver | excretion route / biodistribution in comparison to compounds 2 and 3 (tail vein injection, conclusion from Table 1)
NC(=O)C(Cc1ccc(O)c(I)c1)NC(=O)OC(=O)NCCOCCOCCOCCNC(=O)CCN(C1(C(=O)NO)CCCC1)S(=O)(=O)c1ccc(Oc2ccc(F)cc2)cc1 (stereo not shown) [Compound 3] | 20 % ID/g | 61 % ID/g | –
NC(=O)C(Cc1ccc(O)c(I)c1)NC(=O)CCOCCOCCOCCOCCOCCOCCOCCOCCOCCOCCOCCOCCNC(=O)CCOCCOCCOCCOCCOCCOCCOCCOCCOCCOCCOCCOCCNC(=O)CCN(C1(C(=O)NO)CCCC1)S(=O)(=O)c1ccc(Oc2ccc(F)cc2)cc1 (stereo not shown) [Compound 4] | 70 % ID/g | 20 % ID/g | preferably excreted via the renal system
O=C(CCN(C1(C(=O)NO)CCCC1)S(=O)(=O)c1ccc(Oc2ccc(F)cc2)cc1)NCCc1ccc(O)c(I)c1 [Compound 2] | 7 % ID/g | 71 % ID/g | –
